# Laboratory results: US3954893A, “New halogenated cyclobutanes” (W. R. Grace & Co., priority 1975, dated 1976)
# Legend:
# [1] = review of the art; cited from earlier work
# [2] = tested on: air-breathing mammals; assay: Inhalation anesthetic properties of the compounds; format: in vivo; settings: for Convulsions and death: administered in concentrations within the useful range; for Inhalation anesthetic properties: in vivo
# Description: (§1) In this test, mice were exposed to the compounds for a period of 10 minutes in a rotating drum. Observations were then made of the pinch reflex, the corneal reflex and the return of the righting reflex. At least four graded doses were employed to determine the minimum concentration required to anesthetize 50% of the mice used (AC50) and the minimum concentration required to kill 50% of the mice (LC50). The anesthetic index (AI) was then calculated from these minimum concentrations. The data obtained with the compounds of Examples I to XIII are presented in Table 2 along with, for comparison purposes, results obtained from similar testing of 1,2-dihydrohexafluorocyclobutane, the compound of the prior art, a closely related analog, 1,1,2,2-tetrafluorocyclobutane, and another chlorofluoro anesthetic, 1,1,2-trichloro-2,3,3-trifluorocyclobutane.
# [3] = tested on: mice; assay: Standard test for evaluation of inhalation anesthetics (rotating drum, 10 minutes exposure; AC50, LC50, AI); format: in vivo; settings: for AC50 (minimum concentration required to anesthetize 50% of the mice) / LC50 (minimum concentration required to kill 50% of the mice): inhalation, 10 minutes exposure in rotating drum, where two percentages are given the actual vapor concentration lies between them
# Description: as §1
# [4] = as above; format: in vivo, mice; settings: mouse, in vivo, inhaled or intranasal, calculated from AC50 and LC50, mice; read-out: AI (anesthetic index)
# Description: as §1
# [5] = tested on: mice; assay: Observation after exposure: survival, delayed death, convulsions; format: in vivo
# Description: as §1
# In contrast to these findings, all test mice used in Example I to X were still living one week after exposure.
# This compound, which is one of the numerous halogenated cyclobutanes that have been found deleterious, is of particular interest in that its close structural relationship to the 1,2-dihydrohexafluorocyclobutane isomers of the art and to the useful trifluoro (Ex. VII) homolog disclosed above provides a good illustration of the unpredictability in physiological behavior in the field of anesthesia.
# [6] = cis- and trans- isomers, values reported by Burns et al; cited from earlier work
Compound,Convulsions and death [2],Inhalation anesthetic properties [2],AC50 (minimum concentration required to anesthetize 50% of the mice) [3],LC50 (minimum concentration required to kill 50% of the mice) [3],selectivity ratio at 10 min [4],also measured
"FC1(F)C(F)(F)C(F)(Cl)C1(F)Cl (centres unmarked) [1,2-dichlorohexafluoro-]",,,,,,Anesthetic properties / toxicity in the prior art [1]: toxic
"FC1C(F)C(F)(F)C1(F)F (centres unmarked) [1,2-dihydrohexafluoro-, 1,2-dihydrohexafluorocyclobutane]",,,,,,Anesthetic properties / toxicity in the prior art [1]: said to possess anesthetic properties
"FC1(F)CC(Cl)C1(F)Cl (centres unmarked) [1,4-dichloro-1,2,2-trifluorocyclobutane]",not cause convulsions and death,found to possess inhalation anesthetic properties,,,,
"FC1(F)CC(Cl)C1(F)Br (centres unmarked) [Example X, 1-bromo-2-chloro-1,4,4-trifluorocyclobutane]",not cause convulsions and death,found to possess inhalation anesthetic properties,< 0.2 % volume,0.5 % volume,≥ 2.5,
"FC1(F)CCC1(F)F [Example XII, 1,1,2,2-tetrafluorocyclobutane, reference compound]",,,4 % volume,12 % volume,3,Convulsions ([5]; on further observation): proved to be a convulsant on further observation
"FC1(F)CC(Cl)C1(F)Cl (centres unmarked) [I, b.p. 104°C]",,,0.2 % volume,0.8 % volume,,"AI (anesthetic index) ([3]; calculated from AC50 and LC50, mice, 10 min): 4"
"FC1(F)CC(Cl)C1(F)Cl (centres unmarked) [I, b.p. 107°C]",,,0.2 % volume,1.2 % volume,6,
"FC1CC(F)(F)C1(F)Cl (centres unmarked) [II, 1-chloro-1,2,2,4-tetrafluorocyclobutane]",not cause convulsions and death,found to possess inhalation anesthetic properties,0.5 % volume,3-3.5 % volume,≥ 6,
"FC1(F)CC(F)(Cl)C1(F)Cl (centres unmarked) [III, 1,4-dichloro-1,2,2,4-tetrafluorocyclobutane]",not cause convulsions and death,found to possess inhalation anesthetic properties,0.43-2 % volume,2-3 % volume,≥ 1,
"FC1C(Cl)CC1(F)F (centres unmarked) [IV, 1-chloro-2,3,3-trifluorocyclobutane]",not cause convulsions and death,found to possess inhalation anesthetic properties,0.75-1 % volume,≥ 4 % volume,≥ 4,
"CC1CC(F)(F)C1(F)Br (centres unmarked) [IX, 1-bromo-2-methyl-1,4,4-trifluorocyclobutane]",not cause convulsions and death,found to possess inhalation anesthetic properties,0.5-1 % volume,1.5-1.75 % volume,≥ 1.5,
"FC1(F)CC(F)(Cl)C1(F)F (centres unmarked) [V, 1-chloro-1,2,2,3,3-pentafluorocyclobutane]",not cause convulsions and death,found to possess inhalation anesthetic properties,2 % volume,10 % volume,5,
"FC1CC(F)(F)C1Cl (centres unmarked) [VI, 1-chloro-2,4,4-trifluorocyclobutane]",not cause convulsions and death,found to possess inhalation anesthetic properties,< 1 % volume,2 % volume,≥ 2,
"FC1CCC1(F)F (centres unmarked) [VII, 1,2,2-trifluorocyclobutane]",not cause convulsions and death,found to possess inhalation anesthetic properties,< 4 % volume,8 % volume,≥ 2,
"FC1(F)CCC1(F)Br (centres unmarked) [VIII, 1-bromo-1,2,2-trifluorocyclobutane]",not cause convulsions and death,found to possess inhalation anesthetic properties,< 0.5 % volume,3.5 % volume,≥ 7,
"FC1C(F)C(F)(F)C1(F)F (centres unmarked) [XI, b.p. 26°]",,,,,,AC50 (anesthetic concentration) [6]: 10.5 % volume
"FC1C(F)C(F)(F)C1(F)F (centres unmarked) [XI, b.p. 63°]",,,,,,AC50 (anesthetic concentration) [6]: 1.9 % volume
"FC1(F)CC(Cl)(Cl)C1(F)Cl (centres unmarked) [XIII, 1,1,2-trichloro-2,3,3-trifluorocyclobutane, reference compound]",,,0.2 % volume,1 % volume,5,"Delayed death ([5]; mice, retested in the manner of Examples I to X, XII and XIII, after apparent recovery from anesthesia): The same ""delayed death"" phenomenon has been observed"
C1CC1 [cyclopropane],,,,,,Anesthetic properties / toxicity in the prior art [1]: effective if inflammable anesthetic
"FC(F)(F)C(Cl)Br (centres unmarked) [halothane, reference compound]",,,,,~3,
FC1(F)C(F)(F)C(F)(F)C1(F)F [octafluoro-],,,,,,Anesthetic properties / toxicity in the prior art [1]: inactive
